In patent publication US6346517B1, “Synergy between low molecular weight heparin and platelet aggregation inhibitors, providing a combination therapy for the prevention and treatment of various thromboembolic disorders” (Bristol-Myers Squibb Pharma Company, priority 1999, dated 2002):
Entries after “also recorded” stand apart in the source; their conditions may differ.

Legend:
[1] = tested on: carotid artery thrombus formation; assay: Electrically induced carotid artery thrombosis, carotid blood flow (rabbit model of arterial thrombosis); assay type: in vivo; details: i.v. infusion from 1 hour before and during 90 min after electrical stimulation, aspirin 1 mg/kg/hr, Compound (A) 0.03 mg/kg/hr, Fragmin 60 U/kg/hr
Protocol: (§1) Rabbits were anesthetized with ketamine (50 mg/kg i.m.) and xylazine (10 mg/kg i.m.) and then surgically prepared with arterial and venous catheters. An electromagnetic flow probe was placed on a segment of an isolated carotid artery to monitor blood flow. Thrombus formation was induced by electrical stimulation of the carotid artery for 3 min at 4 mA using an external stainless-steel bipolar electrode. Carotid blood flow was measured continuously over a 90-min period to monitor thrombus occlusion. Test agents were infused intravenously 1 hour prior to the electrical stimulation of the carotid artery and continuously during the 90-min period.

preformed clot = assay: Thrombolysis of a preformed carotid clot in rats (reperfusion, patency, reocclusion); assay type: in vivo; details: for effectiveness in preventing thrombosis in this rat model: 0.3 mg/kg i.v., free acids
Protocol: as §1
Experiments were conducted in rats anesthetized with ketamine (110 mg/kg i.m.) and xylazine (10 mg/kg i.m.). The protocol is similar to the rabbit protocol as described above in Example 1 except that the free acid of a compound of the formula (B): [drawing 11]
or the free acid of sibrafiban and/or TPA were given 5 min after a preformed clot was formed. The measured parameters were time to reperfusion, duration of patency and incidence of reocclusion. The doses of TPA, sibrafiban and compound B used were 1, 0.3 and 0.3 mg/kg i.v., respectively.

[2] = tested on: clot formation in human whole blood; assay: Computerized thromboelastography (TEG): mediator-induced clot formation under shear in whole blood; assay type: cell-based; details: for enhancement of clot strength by platelets: TF-accelerated clot formation
Protocol: Clot formation was monitored at 37° C. in an oscillating plastic cylindrical cuvette (“cup”) and a coaxially suspended stationary piston (“pin”) with a 1 mm clearance between the surfaces, using a computerized Thrombelastograph (CTEG Model 3000, Haemoscope, Skokie, IL). The cup oscillates 4°45′ ( 1/12 radian) in either direction every 4.5 seconds, with a 1 second mid-cycle stationary period; resulting in a frequency of 0.1 Hz and a maximal shear rate of 0.1 per second. The pin is suspended by a torsion wire that acts as a torque transducer. […] The torque experienced by the pin (relative to the cup's oscillation) is plotted as a function of time. The amplitude on the TEG tracing is a measure of the rigidity of the clot; the peak strength or the shear elastic modulus attained by the clot, G, is a function of clot rigidity and can be calculated from the maximal amplitude (MA) of the TEG tracing.
The following parameters were measured from the TEG tracing (FIG. 5):
R, the reaction time (gelation time) represents the latent period before the establishment of a 3-dimensional fibrin gel network (with measurable rigidity of amplitude=2 mm).
Maximum Amplitude (MA, in mm) is the peak rigidity manifested by the clot.
Shear elastic modulus or clot strength (G, dynes/cm^2) is defined by: G=(5000* MA)/(96-MA) for computerized TEG. […]
To assess the effect of the TF modification on peak clot strength (G) was measured with and without the addition of TF in paired samples of WB and PRP. To document the contribution of activated platelets to the elastic modulus of fibrin clots, the effect of platelet number was measured by serially diluting PRP with PPP. The platelet count of each dilution was measured before performing TEG. […] The Thrombelastograph maximum amplitude (MA) for platelets MA (PLT)) was calculated by subtracting the MA from a platelet-poor plasma (PPP) sample MA (PPP) determined in one thromboelastography well from that of whole blood MA (WB) run simultaneously in the second thromboelastography well.

[3] = rat, TPA 1, sibrafiban 0.3, compound B 0.3 mg/kg i.v., given 5 min after preformed clot, free acids used

CS(=O)(=O)O.Cc1noc(C)c1S(=O)(=O)N[C@@H](CNC(=O)C[C@H]1CC(c2ccc(C(=N)N)cc2)=NO1)C(=O)O [Compound (A)]
effect on occlusion of the artery / carotid blood flow [1]: did not prevent the occlusion of the artery; also recorded: not effective

CC(=O)O.CCCCOC(=O)N[C@@H](CNC(=O)C[C@H]1CC(c2ccc(C(=N)N)cc2)=NO1)C(=O)OC (stereo in doubt) [Compound B, roxifiban]
effectiveness in preventing thrombosis in this rat model (preformed clot): equal effective

tissue plasminogen activator [TPA]
Incidence of reocclusion (preformed clot; rat, TPA 1, sibrafiban 0.3, compound B 0.3 mg/kg i.v., given 5 min after preformed clot, animals reoccluded/total): 15/17
Duration of patency (preformed clot; [3]): 29 ± 2%
Time to reperfusion (preformed clot; [3]): 32 ± 6 min

CC(=O)O.CCCCOC(=O)N[C@@H](CNC(=O)C[C@H]1CC(c2ccc(C(=N)N)cc2)=NO1)C(=O)OC [Compound B, roxifiban]
enhancement of clot strength by platelets [2]: inhibited

TFPI: Tissue factor pathway inhibitor
IC50, clot formation (clot retraction) induced by LPS ([2]; LPS 6.25 μg, human whole blood, mean ± SEM): 0.09 ± 0.01 µg/mL

CCOC(=O)COC1CCN(C(=O)[C@H](C)NC(=O)c2ccc(C(=N)NO)cc2)CC1 [sibrafiban, reference compound]
effectiveness in preventing thrombosis in this rat model (preformed clot): equal effective

CC(=O)Oc1ccccc1C(=O)O [Aspirin, aspirin, reference compound]
effect on occlusion of the artery / carotid blood flow [1]: did not prevent the occlusion of the artery

B1: Abciximab: c7E3 Fab (Abciximab, Centocor), platelet GPIIb/IIIa antagonist (antibody, chains of the INN, looked up, V domains shown)
VH: EVQLQQSGTVLARPGASVKMSCEASGYTFTNYWMHWVKQRPGQGLEWIGAIYPGNSDTSYIQKFKGKAKLTAVTSTTSVYMELSSLTNEDSAVYYCTLYDGYYVFAYWGQGTLVTVSA
VL: EIVLTQSPVTLSVTPGDSVSLSCRASRDISNNLHWFQQTSHESPRLLIKYASQSMSGIPSRFSGSGSGTDFTLSINSVETEDFGMYFCQQTNSWPYTFGGGTKLEIK
modifications: Fab
notes: c7E3 Fab (Abciximab, Centocor), platelet GPIIb/IIIa antagonist
enhancement of clot strength by platelets [2]: inhibited
